According to ChEMBL document CHEMBL4393686, “InCl3 mediated heteroarylation of indoles and their derivatization via CH activation strategy: Discovery of 2-(1H-indol-3-yl)-quinoxaline derivatives as a new class of PDE4B selective inhibitors for arthritis and/or multiple sclerosis” (Eur J Med Chem, 2019):
Calls of active or inactive are those of the source. The rule behind the calls is not given here.

Key:
[1] = Hepatotoxicity in zebrafish embryos assessed as liver size at 1 to 100 uM incubated for 7 dpf; assay type: toxicity, Danio rerio; conditions: in vivo
[2] = Tmax in BALB/c mouse at 10 mg/kg, iv measured for 24 hrs post dose by LC-MS/MS analysis; assay type: ADME, organism-based; conditions: in vivo
[3] = system: Rattus norvegicus; assay: Antiinflammatory activity in complete Freund's adjuvant-induced Wistar rat arthritis model assessed as reduction in IL1beta expression in serum at 30 mg/kg, ip administered from 11th day to 20th day by ELISA; assay type: functional, organism-based
[4] = molecular target: PDE4C (Homo sapiens, UniProt Q08493); assay: Inhibition of PDE4C (unknown origin) at 100 uM using cAMP as substrate preincubated with enzyme for 15 mins followed by substrate addition and incubated for 1 hr by PDELight HTS cAMP phosphodiesterase Kit based luminometry relative to control; conditions: probe cAMP
[5] = system: Rattus norvegicus; assay: Antiarthritic activity in complete Freund's adjuvant-induced Wistar rat arthritis model assessed as reduction in pannus formation at 30 mg/kg, ip administered from 11th day to 20th day by H&E staining based microscopic analysis; assay type: functional, organism-based
[6] = molecular target: cGMP-specific 3',5'-cyclic phosphodiesterase (Homo sapiens) (UniProt O76074); assay: Inhibition of recombinant N-terminal GST-tagged full length human PDE5A1 expressed in Sf9 cells using FAM-cGMP as substrate at 10 uM incubated for 60 mins by fluorescence plate reader analysis
[7] = Hepatotoxicity in zebrafish embryos assessed as liver degeneration at 1 to 100 uM incubated for 7 dpf; assay type: toxicity, Danio rerio; conditions: in vivo
[8] = organism: Homo sapiens; assay: Selectivity index, ratio of IC50 for PDE4D2 (unknown origin) to IC50 for recombinant His-tagged human PDE4B expressed in sf9 cells using cAMP as substrate by PDELight HTS cAMP phosphodiesterase Kit based luminometry
[9] = Clearance in BALB/c mouse at 10 mg/kg, iv measured for 24 hrs post dose by LC-MS/MS analysis; assay type: ADME, organism-based; conditions: in vivo
[10] = molecular target: Cone cGMP-specific 3',5'-cyclic phosphodiesterase subunit alpha' (Homo sapiens) (UniProt P51160); assay: Inhibition of recombinant N-terminal GST-tagged full length human PDE6C expressed in Sf9 cells using FAM-cGMP as substrate at 10 uM incubated for 60 mins by fluorescence plate reader analysis
Cone cGMP-specific 3',5'-cyclic phosphodiesterase subunit alpha' (Homo sapiens), sequence (P51160 whole entry): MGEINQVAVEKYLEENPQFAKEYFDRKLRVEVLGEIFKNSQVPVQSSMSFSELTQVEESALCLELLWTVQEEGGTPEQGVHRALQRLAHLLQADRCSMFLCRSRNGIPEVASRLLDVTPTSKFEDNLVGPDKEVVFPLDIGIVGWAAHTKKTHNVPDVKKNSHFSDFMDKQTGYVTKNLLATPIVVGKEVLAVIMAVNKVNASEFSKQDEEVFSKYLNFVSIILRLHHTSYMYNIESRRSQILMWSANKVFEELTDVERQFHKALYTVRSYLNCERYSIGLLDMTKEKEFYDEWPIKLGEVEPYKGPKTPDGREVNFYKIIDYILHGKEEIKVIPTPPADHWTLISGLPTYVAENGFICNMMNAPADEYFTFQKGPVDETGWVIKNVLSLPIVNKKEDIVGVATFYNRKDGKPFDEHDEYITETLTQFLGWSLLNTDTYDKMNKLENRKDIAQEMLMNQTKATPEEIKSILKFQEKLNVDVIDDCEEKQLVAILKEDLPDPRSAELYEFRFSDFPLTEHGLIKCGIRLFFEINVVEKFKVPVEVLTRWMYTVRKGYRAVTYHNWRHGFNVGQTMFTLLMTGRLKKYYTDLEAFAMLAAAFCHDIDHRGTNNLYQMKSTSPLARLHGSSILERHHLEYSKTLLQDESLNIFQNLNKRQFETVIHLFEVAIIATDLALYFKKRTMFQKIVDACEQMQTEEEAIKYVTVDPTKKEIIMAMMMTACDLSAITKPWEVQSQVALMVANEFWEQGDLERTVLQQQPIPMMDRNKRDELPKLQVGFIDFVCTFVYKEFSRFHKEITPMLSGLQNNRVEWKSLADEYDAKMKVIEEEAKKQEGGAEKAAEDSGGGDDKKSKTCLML

[11] = Toxicity in zebrafish embryo assessed as effect in fin formation at 1 to 100 uM; design: species or system Danio rerio; conditions: in vivo
[12] = Cmax in BALB/c mouse at 10 mg/kg, iv measured for 24 hrs post dose by LC-MS/MS analysis; assay type: ADME, organism-based; design: dose 10 mg/kg, route intravenous; conditions: in vivo
[13] = system: Rattus norvegicus; assay: Antiinflammatory activity in complete Freund's adjuvant-induced Wistar rat arthritis model assessed as reduction in TNFalpha expression in serum at 30 mg/kg, ip administered from 11th day to 20th day by ELISA; assay type: functional, organism-based
[14] = Toxicity in zebrafish embryo assessed as change in body shape at 1 to 100 uM; design: species or system Danio rerio; conditions: in vivo
[15] = molecular target: cAMP and cAMP-inhibited cGMP 3',5'-cyclic phosphodiesterase 10A (Homo sapiens) (UniProt Q9Y233); assay: Inhibition of recombinant N-terminal GST-tagged full length human PDE10A2 expressed in Sf9 cells using FAM-cAMP as substrate at 10 uM incubated for 60 mins by fluorescence plate reader analysis
[16] = molecular target: cGMP-inhibited 3',5'-cyclic phosphodiesterase 3A (Homo sapiens) (UniProt Q14432); assay: Inhibition of recombinant PDE3A (unknown origin) using FAM-cAMP as substrate at 10 uM incubated for 60 mins by fluorescence plate reader analysis
cGMP-inhibited 3',5'-cyclic phosphodiesterase 3A (Homo sapiens), sequence (Q14432 whole entry): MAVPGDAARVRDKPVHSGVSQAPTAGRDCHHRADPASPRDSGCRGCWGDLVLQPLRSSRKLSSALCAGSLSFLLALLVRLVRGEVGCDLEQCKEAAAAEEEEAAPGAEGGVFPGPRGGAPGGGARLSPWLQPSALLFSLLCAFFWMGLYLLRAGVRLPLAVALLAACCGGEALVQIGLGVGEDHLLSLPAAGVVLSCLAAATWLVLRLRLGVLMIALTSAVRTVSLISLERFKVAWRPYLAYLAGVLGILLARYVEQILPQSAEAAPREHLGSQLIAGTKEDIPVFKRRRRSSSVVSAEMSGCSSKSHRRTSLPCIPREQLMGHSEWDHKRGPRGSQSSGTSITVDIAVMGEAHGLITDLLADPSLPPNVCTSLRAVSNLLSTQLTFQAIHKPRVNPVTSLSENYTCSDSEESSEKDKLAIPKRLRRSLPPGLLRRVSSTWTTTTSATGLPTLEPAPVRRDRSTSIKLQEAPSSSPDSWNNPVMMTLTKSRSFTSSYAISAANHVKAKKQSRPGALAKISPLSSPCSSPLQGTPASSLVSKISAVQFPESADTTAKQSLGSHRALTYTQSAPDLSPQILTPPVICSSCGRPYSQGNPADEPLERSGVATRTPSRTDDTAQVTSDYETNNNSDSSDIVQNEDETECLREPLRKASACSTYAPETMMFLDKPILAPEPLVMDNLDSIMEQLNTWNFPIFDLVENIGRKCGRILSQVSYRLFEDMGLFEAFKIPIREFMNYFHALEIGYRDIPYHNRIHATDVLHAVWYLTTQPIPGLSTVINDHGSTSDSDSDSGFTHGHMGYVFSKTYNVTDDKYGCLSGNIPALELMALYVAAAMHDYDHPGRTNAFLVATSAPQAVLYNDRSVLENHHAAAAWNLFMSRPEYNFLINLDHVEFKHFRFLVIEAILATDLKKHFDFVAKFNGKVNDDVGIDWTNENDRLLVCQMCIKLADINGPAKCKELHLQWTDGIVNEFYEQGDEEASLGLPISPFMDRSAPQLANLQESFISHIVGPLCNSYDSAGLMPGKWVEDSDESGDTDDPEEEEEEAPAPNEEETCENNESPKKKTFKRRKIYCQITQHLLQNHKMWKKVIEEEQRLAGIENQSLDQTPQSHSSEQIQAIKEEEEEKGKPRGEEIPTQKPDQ

[17] = Toxicity in zebrafish embryo assessed as effect in liver formation at 1 to 100 uM; design: species or system Danio rerio; conditions: in vivo
[18] = system: RAW264.7; assay: Antiinflammatory activity in mouse RAW264.7 cells assessed as inhibition of LPS-induced iNOS expression preincubated for 30 mins followed by LPS stimulation and incubated for 10 hrs by immunoblotting analysis; assay type: functional, cell-based
[19] = system: Rattus norvegicus; assay: Analgesic activity in complete Freund's adjuvant-induced Wistar rat arthritis model assessed as increase in reaction time at 30 mg/kg, ip administered from 11th day 20th day with last dose administered 30 mins prior to test by hot-plate test; assay type: functional, organism-based
[20] = system: Rattus norvegicus; assay: Antiinflammatory activity in complete Freund's adjuvant-induced Wistar rat arthritis model assessed as reduction in iNOS mRNA expression at 30 mg/kg, ip administered from 11th day to 20th day by qPCR analysis; assay type: functional, organism-based
[21] = Half life in BALB/c mouse at 10 mg/kg, iv measured for 24 hrs post dose by LC-MS/MS analysis; assay type: ADME, organism-based; conditions: in vivo
[22] = Toxicity in zebrafish embryos assessed as teratogenicity score at 1 to 100 uM incubated for 5 dpf; design: species or system Danio rerio; conditions: in vivo
[23] = system: RAW264.7; assay: Antiinflammatory activity in mouse RAW264.7 cells assessed as inhibition of LPS-induced TNFalpha mRNA expression preincubated for 30 mins followed by LPS stimulation and incubated for 10 hrs by qPCR analysis; assay type: functional, cell-based
[24] = system: Rattus norvegicus; assay: Antiarthritic activity in complete Freund's adjuvant-induced Wistar rat arthritis model assessed as reduction in synovial inflammation at 30 mg/kg, ip administered from 11th day to 20th day by H&E staining based microscopic analysis; assay type: functional, organism-based
[25] = system: Danio rerio; assay: Anti-sclerotic activity in MOG/CFA-induced zebra fish EAE model assessed as prevention of disease progression at 3 to 30 mg/kg, ip measured for 7 days; assay type: functional, organism-based
[26] = MRTlast in BALB/c mouse at 10 mg/kg, iv measured for 24 hrs post dose by LC-MS/MS analysis; assay type: ADME, organism-based; conditions: in vivo
[27] = Toxicity in zebrafish embryo assessed as effect in lower jaw formation at 1 to 100 uM; design: species or system Danio rerio; conditions: in vivo
[28] = molecular target: cGMP-dependent 3',5'-cyclic phosphodiesterase (Homo sapiens) (UniProt O00408); assay: Inhibition of recombinant N-terminal-GST-Th-tagged full length human PDE2A1 expressed in Sf9 cells using FAM-cAMP as substrate at 10 uM incubated for 60 mins by fluorescence plate reader analysis
cGMP-dependent 3',5'-cyclic phosphodiesterase (Homo sapiens), sequence (O00408 whole entry): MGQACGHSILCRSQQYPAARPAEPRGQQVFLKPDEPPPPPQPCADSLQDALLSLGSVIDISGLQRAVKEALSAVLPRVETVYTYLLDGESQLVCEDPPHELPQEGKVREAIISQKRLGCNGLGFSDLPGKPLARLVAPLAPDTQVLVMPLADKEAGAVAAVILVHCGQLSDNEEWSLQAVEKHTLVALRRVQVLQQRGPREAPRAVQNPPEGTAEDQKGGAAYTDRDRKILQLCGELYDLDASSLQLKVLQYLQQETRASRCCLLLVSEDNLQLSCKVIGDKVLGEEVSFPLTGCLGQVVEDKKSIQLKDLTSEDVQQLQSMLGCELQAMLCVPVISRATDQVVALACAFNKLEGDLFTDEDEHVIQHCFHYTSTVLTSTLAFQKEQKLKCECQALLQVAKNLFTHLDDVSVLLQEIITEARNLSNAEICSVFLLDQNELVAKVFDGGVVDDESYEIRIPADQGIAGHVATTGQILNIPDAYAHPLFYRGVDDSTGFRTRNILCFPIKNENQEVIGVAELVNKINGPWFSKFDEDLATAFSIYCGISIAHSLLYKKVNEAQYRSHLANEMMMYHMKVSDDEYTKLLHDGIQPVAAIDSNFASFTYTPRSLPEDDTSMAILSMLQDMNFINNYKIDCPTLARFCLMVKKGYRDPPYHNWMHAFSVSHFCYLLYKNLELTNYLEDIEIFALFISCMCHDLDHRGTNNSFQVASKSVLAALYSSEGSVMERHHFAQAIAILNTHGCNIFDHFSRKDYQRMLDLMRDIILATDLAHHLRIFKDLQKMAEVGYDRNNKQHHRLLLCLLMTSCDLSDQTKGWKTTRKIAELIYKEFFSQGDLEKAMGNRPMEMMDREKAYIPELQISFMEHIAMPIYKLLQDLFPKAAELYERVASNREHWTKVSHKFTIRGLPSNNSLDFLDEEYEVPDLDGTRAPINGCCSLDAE

[29] = molecular target: High affinity cAMP-specific and IBMX-insensitive 3',5'-cyclic phosphodiesterase 8A (Homo sapiens) (UniProt O60658); assay: Inhibition of recombinant N-terminal GST-tagged full length human PDE8A1 expressed in Sf9 cells using FAM-cAMP as substrate at 10 uM incubated for 60 mins by fluorescence plate reader analysis
High affinity cAMP-specific and IBMX-insensitive 3',5'-cyclic phosphodiesterase 8A (Homo sapiens), sequence (O60658 whole entry): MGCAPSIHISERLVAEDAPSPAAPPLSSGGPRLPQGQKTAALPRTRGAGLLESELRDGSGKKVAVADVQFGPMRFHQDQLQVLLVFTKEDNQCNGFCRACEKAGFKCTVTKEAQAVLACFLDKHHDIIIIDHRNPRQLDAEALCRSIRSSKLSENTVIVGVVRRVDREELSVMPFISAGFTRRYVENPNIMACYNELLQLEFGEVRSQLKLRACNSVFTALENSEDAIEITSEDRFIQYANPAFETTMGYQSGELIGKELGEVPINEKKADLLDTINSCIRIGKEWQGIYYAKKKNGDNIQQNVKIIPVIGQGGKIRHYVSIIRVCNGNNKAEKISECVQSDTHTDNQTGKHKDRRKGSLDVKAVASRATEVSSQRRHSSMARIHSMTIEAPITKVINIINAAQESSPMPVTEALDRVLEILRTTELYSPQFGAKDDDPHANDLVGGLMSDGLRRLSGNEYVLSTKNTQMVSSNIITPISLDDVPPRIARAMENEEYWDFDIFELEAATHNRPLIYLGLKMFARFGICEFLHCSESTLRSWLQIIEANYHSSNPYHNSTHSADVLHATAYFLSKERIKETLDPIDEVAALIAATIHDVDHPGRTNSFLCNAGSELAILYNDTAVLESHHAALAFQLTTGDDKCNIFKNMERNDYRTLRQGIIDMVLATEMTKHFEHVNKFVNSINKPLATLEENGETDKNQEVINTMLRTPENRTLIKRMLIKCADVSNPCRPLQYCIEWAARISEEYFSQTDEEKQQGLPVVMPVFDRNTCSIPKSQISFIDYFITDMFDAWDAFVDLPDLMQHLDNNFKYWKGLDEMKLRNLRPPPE

[30] = Toxicity in zebrafish embryo assessed as effect in brain formation at 1 to 100 uM; assay type: tissue-based, Danio rerio; conditions: in vivo
[31] = molecular target: 3',5'-cyclic-AMP phosphodiesterase 4D (Homo sapiens, UniProt Q08499); assay: Inhibition of PDE4D2 (unknown origin) using cAMP as substrate preincubated with enzyme for 15 mins followed by substrate addition and incubated for 1 hr by PDELight HTS cAMP phosphodiesterase Kit based luminometry
3',5'-cyclic-AMP phosphodiesterase 4D, sequence (Q08499 whole entry): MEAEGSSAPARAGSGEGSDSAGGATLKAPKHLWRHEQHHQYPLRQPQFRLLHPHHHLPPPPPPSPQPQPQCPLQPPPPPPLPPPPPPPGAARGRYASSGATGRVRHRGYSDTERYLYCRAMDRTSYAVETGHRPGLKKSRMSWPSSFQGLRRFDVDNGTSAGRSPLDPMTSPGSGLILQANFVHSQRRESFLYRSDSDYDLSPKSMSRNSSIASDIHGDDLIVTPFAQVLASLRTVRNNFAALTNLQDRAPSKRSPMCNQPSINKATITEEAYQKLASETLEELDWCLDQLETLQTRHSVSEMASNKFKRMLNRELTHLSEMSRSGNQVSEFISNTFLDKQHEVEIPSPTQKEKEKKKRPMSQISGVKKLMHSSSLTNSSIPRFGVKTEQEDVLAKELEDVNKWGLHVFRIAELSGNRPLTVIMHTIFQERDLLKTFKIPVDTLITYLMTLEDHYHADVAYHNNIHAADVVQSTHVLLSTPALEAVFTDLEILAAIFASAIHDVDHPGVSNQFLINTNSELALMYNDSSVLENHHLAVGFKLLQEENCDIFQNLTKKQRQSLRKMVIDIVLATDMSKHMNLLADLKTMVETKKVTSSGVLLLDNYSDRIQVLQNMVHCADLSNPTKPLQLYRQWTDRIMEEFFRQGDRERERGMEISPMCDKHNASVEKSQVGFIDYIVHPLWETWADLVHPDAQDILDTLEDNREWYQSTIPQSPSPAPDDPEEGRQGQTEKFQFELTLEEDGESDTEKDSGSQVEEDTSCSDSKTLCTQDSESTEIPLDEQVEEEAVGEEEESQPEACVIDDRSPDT

[32] = Inhibition of recombinant N-terminal GST-tagged full length human PDE4A1A expressed in Sf9 cells using cAMP as substrate at 10 uM incubated for 60 mins by fluorescence plate reader analysis
[33] = AUClast in BALB/c mouse at 10 mg/kg, iv measured for 24 hrs post dose by LC-MS/MS analysis; assay type: ADME, organism-based; design: dose 10 mg/kg, route intravenous, time 0 - last; conditions: in vivo
[34] = AUC (0 to extrap) in BALB/c mouse at 10 mg/kg, iv measured for 24 hrs post dose by LC-MS/MS analysis; assay type: ADME, organism-based; conditions: in vivo

## C=CCn1cc(-c2nc3ccccc3nc2Cl)c2cc(OC)ccc21
[1]
  Activity: Non-Toxic
[2]
  Tmax: 4.8 min
[3]
  inhibition: Active
[4]
  inhibition at 1 h, 100 µM: 20 to 30%
[5]
  inhibition: Active
[6]
  inhibition: 2%
[7]
  Activity: Non-Toxic
[8]
  Ratio IC50: 27
[9]
  clearance: 143 mL/min/kg
[10]
  inhibition: 2%
[11]
  Activity: Non-Toxic
[12]
  Cmax: 2850 ng/mL
[13]
  inhibition: Active
[14]
  Activity: Non-Toxic
[15]
  inhibition: 15%
[16]
  inhibition: 1%
[17]
  Activity: Non-Toxic
[18]
  inhibition: Active
[19]
  Activity: Active
[20]
  inhibition: Active
[21]
  half-life: 38.4 min
[22]
  Activity: Non-Toxic
[23]
  inhibition: Active
[24]
  inhibition: Active
[25]
  Activity: Active
[26]
  MRT last at 24 h: 21.6 min
[27]
  Activity: Toxic
[28]
  inhibition: 3%
[29]
  inhibition: 3%
[30]
  Activity: Non-Toxic
[31]
  IC50: 10.7 µM
[32]
  inhibition: 40%
[33]
  AUC(0-t) at 24 h: 1090 ng·h/mL
[34]
  %AUCextra: 6.23%
